Test results from ChEMBL document CHEMBL1159131, “Structural modifications of 6-naphthalene-2-carboxylate retinoids” (Bioorg Med Chem Lett, 1996).
The source made the active and inactive calls. The calls are words filed in the database; no cut-off is given here.

How the values were obtained:
[1] = target: T1, Retinoic acid receptor alpha (Homo sapiens) (UniProt P10276); assay: Transcriptional activation activity against retinoic acid receptor RAR alpha; Not active
T1 sequence (whole entry): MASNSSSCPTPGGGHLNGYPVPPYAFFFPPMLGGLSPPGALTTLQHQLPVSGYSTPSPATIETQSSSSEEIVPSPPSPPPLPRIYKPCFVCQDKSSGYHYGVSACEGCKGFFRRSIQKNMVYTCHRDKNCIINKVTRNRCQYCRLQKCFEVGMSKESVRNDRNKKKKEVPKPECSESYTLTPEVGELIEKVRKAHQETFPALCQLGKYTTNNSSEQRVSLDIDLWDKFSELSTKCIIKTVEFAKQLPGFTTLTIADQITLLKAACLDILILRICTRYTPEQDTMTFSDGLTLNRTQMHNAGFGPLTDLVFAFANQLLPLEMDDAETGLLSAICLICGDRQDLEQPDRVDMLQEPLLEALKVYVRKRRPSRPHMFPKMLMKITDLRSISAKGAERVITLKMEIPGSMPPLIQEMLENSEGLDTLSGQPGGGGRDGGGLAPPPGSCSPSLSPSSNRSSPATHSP

[2] = target: T2, Retinoic acid receptor beta (Homo sapiens) (UniProt P10826); assay: Maximum retinoic acid receptor (RAR)-beta transactivation activity relative to retinoic acid at 10e-6 M
T2 sequence (whole entry): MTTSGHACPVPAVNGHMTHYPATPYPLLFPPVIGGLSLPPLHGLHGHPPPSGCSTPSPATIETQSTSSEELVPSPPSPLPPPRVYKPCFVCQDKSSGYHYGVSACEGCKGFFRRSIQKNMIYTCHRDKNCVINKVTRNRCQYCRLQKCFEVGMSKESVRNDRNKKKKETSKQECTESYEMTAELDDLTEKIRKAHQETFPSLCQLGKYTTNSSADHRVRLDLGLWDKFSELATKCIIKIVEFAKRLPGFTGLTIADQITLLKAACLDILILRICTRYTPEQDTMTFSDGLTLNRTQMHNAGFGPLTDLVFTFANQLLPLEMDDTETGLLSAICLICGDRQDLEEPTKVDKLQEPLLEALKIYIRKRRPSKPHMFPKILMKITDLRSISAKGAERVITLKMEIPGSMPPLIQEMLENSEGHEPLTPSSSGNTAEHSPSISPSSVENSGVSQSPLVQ

[3] = target: T1, Retinoic acid receptor alpha (Homo sapiens); assay: Maximum retinoic acid receptor (RAR)-alpha transactivation activity relative to retinoic acid at 10e-6 M
[4] = target: T2, Retinoic acid receptor beta (Homo sapiens); assay: Transactivation activity at retinoic acid receptor beta.
[5] = target: T3, Retinoic acid receptor gamma (Homo sapiens) (UniProt P13631); assay: Transcriptional activation activity against retinoic acid receptor RAR gamma; Not active
T3 sequence (whole entry): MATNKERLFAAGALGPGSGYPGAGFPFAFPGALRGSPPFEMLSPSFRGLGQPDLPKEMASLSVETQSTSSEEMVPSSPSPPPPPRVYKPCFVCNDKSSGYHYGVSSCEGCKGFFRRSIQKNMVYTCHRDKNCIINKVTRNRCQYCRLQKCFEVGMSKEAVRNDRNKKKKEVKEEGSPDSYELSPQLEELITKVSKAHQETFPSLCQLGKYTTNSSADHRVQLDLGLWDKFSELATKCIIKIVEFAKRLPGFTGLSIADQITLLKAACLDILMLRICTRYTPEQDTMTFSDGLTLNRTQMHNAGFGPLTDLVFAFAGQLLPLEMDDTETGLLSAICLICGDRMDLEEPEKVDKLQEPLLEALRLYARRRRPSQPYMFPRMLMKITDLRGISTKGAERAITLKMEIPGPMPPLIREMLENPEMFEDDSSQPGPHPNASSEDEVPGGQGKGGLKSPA

[6] = target: T2, Retinoic acid receptor beta (Homo sapiens); assay: Transcriptional activation activity against retinoic acid receptor RAR beta; Not active
[7] = target: T1, Retinoic acid receptor alpha (Homo sapiens); assay: Transcriptional activation activity against retinoic acid receptor RAR alpha

EC50 ratio [1] | Max [2] [%] | Max [3] [%] | EC50 ratio [4] | EC50 ratio [5] | EC50 ratio [6] | EC50 ratio [7] | SMILES
inactive | 0 | 0 | – | inactive | inactive | – | COc1c(C(=O)c2ccc3cc(C(=O)O)ccc3c2)ccc2c1C(C)(C)CCC2(C)C
– | 61 | 23 | 14 | – | – | 8 | COc1cc2c(cc1C(=O)c1ccc3cc(C(=O)O)ccc3c1)C(C)(C)CCC2(C)C
inactive | 0 | 0 | – | inactive | inactive | – | COc1c(C(=O)c2ccc3c(c2)C(C)(C)CCC3(C)C)ccc2cc(C(=O)O)ccc12
– | 77 | 0 | – | – | – | – | CC1(C)CCC(C)(C)c2cc(C(O)c3ccc4cc(C(=O)O)ccc4c3)ccc21 (stereo unspecified)
– | 81 | 26 | 25 | – | – | 25 | Cc1cc2c(cc1C(=O)c1ccc3cc(C(=O)O)ccc3c1)C(C)(C)CCC2(C)C
– | 81 | 63 | 4 | – | – | 10 | CC1(C)CCC(C)(C)c2c(F)cc(C(=O)c3ccc4cc(C(=O)O)ccc4c3)cc21
– | 92 | 27 | 17 | – | – | 25 | CC1(C)CCC(C)(C)c2cc(Nc3ccc4cc(C(=O)O)ccc4c3)ccc21
inactive | 30 | 0 | 133 | – | – | – | CC1(C)CCC(C)(C)c2cc(C(O)c3ccc4cc(C(=O)O)ccc4c3)c(F)cc21 (stereo unspecified)
– | 96 | 42 | 40 | – | – | 38 | CC1(C)CCC(C)(C)c2cc([S+]([O-])/C=C/c3ccc(C(=O)O)cc3)ccc21 (stereo unspecified)
– | 88 | 45 | 10 | – | – | 25 | CC1(C)CCC(C)(C)c2cc(Sc3ccc4cc(C(=O)O)ccc4c3)ccc21
– | 158 | 118 | 0.8 | – | – | 1.3 | CC1(C)CCC(C)(C)c2cc(S/C=C/c3ccc(C(=O)O)cc3)ccc21

The next lines start with the molecule.

SMILES | EC50 ratio [1] | Max [2] [%] | Max [3] [%] | EC50 ratio [4] | EC50 ratio [5] | EC50 ratio [6] | EC50 ratio [7]
CC1(C)CCC(C)(C)c2c1ccc(C(O)c1ccc3cc(C(=O)O)ccc3c1)c2F (stereo unspecified) | inactive | 74 | 0 | 133 | – | – | –
CC1(C)CCC(C)(C)c2cc(C(=O)c3ccc4cc(C(=O)O)ccc4c3O)ccc21 | inactive | 0 | 0 | – | inactive | inactive | –
CC1(C)CCC(C)(C)c2cc([S+]([O-])c3ccc4cc(C(=O)O)ccc4c3)ccc21 (stereo unspecified) | inactive | 52 | 0 | 167 | – | – | –
CC1(C)CCC(C)(C)c2cc(S(=O)(=O)c3ccc4cc(C(=O)O)ccc4c3)ccc21 | inactive | 32 | 0 | 133 | – | – | –
CC1(C)CCC(C)(C)c2cc(C(=O)/C=C/c3ccc(C(=O)O)cc3)ccc21 | – | – | – | 1.2 | – | – | 0.7
CC1(C)CCC(C)(C)c2cc(C(O)c3ccc4cc(C(=O)O)ccc4c3)c(O)cc21 (stereo unspecified) | inactive | 18 | 0 | – | – | inactive | –
CC1(C)CCC(C)(C)c2c(F)cc(C(O)c3ccc4cc(C(=O)O)ccc4c3)cc21 (stereo unspecified) | inactive | 0 | 0 | – | inactive | inactive | –
CC1(C)CCC(C)(C)c2cc(Oc3ccc4cc(C(=O)O)ccc4c3)ccc21 | – | 120 | 56 | 20 | – | – | 63
Cc1cc2c(cc1C(O)c1ccc3cc(C(=O)O)ccc3c1)C(C)(C)CCC2(C)C (stereo unspecified) | inactive | 96 | 0 | 100 | – | – | –
CC1(C)CCC(C)(C)c2cc(C(=O)c3ccc4cc(C(=O)O)ccc4c3)c(F)cc21 | – | 81 | 34 | 15 | – | – | 25
CC1(C)CCC(C)(C)c2cc(S(=O)(=O)/C=C/c3ccc(C(=O)O)cc3)ccc21 | inactive | 35 | 0 | 200 | – | – | –
CC1(C)CCC(C)(C)c2c1cc(O)c(C(=O)c1ccc3cc(C(=O)O)ccc3c1)c2F | – | 87 | 46 | 6.7 | – | – | 100
CC1(C)CCC(C)(C)c2cc(C(=O)c3ccc4cc(C(=O)O)ccc4c3)c(O)cc21 | – | 76 | 44 | 7.5 | – | – | 25
